target: T1, Human BOAT1 (Homo sapiens, UniProt Q695T7); test: hBOAT1 inhibitory test (phenylalanine uptake); assay type: cell-based; conditions: Human BOAT1 stable expression CHO cells; [3H]-L-phenylalanine uptake, phenylalanine 0.25 mM; radioactivity after 100 to 200 min; read-out: hB0AT1 IC50
T1 construct: expressed in transfected cells
T1 sequence (Q695T7 1-634): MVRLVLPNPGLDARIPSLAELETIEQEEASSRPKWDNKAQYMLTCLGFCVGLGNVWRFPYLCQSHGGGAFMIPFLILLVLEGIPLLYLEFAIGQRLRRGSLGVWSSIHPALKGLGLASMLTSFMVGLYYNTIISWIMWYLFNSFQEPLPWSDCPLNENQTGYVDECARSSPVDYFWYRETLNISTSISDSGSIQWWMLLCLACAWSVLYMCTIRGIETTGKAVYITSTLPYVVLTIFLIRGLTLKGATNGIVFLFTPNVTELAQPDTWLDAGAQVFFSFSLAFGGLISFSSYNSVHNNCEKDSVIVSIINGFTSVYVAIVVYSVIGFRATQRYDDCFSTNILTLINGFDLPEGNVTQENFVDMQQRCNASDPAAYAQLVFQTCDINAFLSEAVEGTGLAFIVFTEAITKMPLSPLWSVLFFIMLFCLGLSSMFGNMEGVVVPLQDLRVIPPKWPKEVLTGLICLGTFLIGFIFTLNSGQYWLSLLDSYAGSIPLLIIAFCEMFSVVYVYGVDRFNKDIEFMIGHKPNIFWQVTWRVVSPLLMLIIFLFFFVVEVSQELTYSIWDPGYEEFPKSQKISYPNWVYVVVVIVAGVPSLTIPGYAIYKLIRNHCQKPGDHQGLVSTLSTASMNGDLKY
Protocol: A test compound dissolved in dimethyl sulfoxide (DMSO) was added to a 96 well plate for solid phase radioactivity measurement containing a scintillator at the bottom of the well (final concentration of DMSO 0.5%). DMSO alone as a control and DMSO containing N-(4-bromophenyl)-3,5-dichloro-2-hydroxybenzamide (final concentration […]) for the measurement of BOAT1 non-specific uptake were similarly added at 0.5 μL per well. Human BOAT1 stable expression CHO cells suspended in a buffer (buffer containing 96 mM sodium chloride, 2 mM potassium chloride, 1.8 mM calcium chloride, 1 mM magnesium chloride, 0.01% bovine serum albumin, and 10 mM 2-[4-(2-hydroxyethyl)-1-piperazinyl]ethanesulfonic acid) were added by 90 μL to 75000 cells/well. After standing at ordinary temperature for 30 min or longer, the cells were subjected to a phenylalanine uptake experiment. A buffer containing L-phenylalanine and [3,4,5-3H]-L-phenylalanine was added by 10 μL per well (final concentration of phenylalanine 0.25 mM), and the radioactivity of the plate bottom surface at ordinary temperature was measured with a scintillation counter over time, and the radioactivity value after 100 to 200 min was analyzed.

IC50 [µM] | Structure (SMILES)
0.232 | O=C(/C=C/c1ccc(C(F)(F)F)cc1F)NCC(=O)N1CCc2cc(Cc3nn[nH]n3)cc(Cl)c2C1 [I-378, (E)-N-[2-[8-chloro-6-(1,2,3λ4,4-tetraazacyclopenta-2,4-dien-5-ylmethyl)-3,4-dihydro-1H-isoquinolin-2-yl]-2-oxoethyl]-3-[2-fluoro-4-(trifluoromethyl)phenyl]prop-2-enamide]
0.143 | C[C@H]1CN(CCCC(=O)O)C[C@H](c2ccccc2)N1C(=O)CNC(=O)/C=C/c1ccc(C(F)(F)F)cc1F [I-370]
2.52 | C[C@@H]1CN(C(=O)CNC(=O)/C=C/c2ccc(C(F)(F)F)cc2F)[C@@H](c2ccccc2)CN1CCCc1nn[nH]n1 [I-379, (E)-3-[2-fluoro-4-(trifluoromethyl)phenyl]-N-[2-[(2S,5R)-4-[3-(1,2,3λ4,4-tetraazacyclopenta-2,4-dien-5-yl)propyl]-5-methyl-2-phenylpiperazin-1-yl]-2-oxoethyl]prop-2-enamide]

Continued, compound first:

Structure (SMILES) | IC50 [µM]
CC(Cc1ccc2c(c1)CCN(C(=O)CNC(=O)/C=C/c1ccc(C(F)(F)F)cc1)C2)C(=O)O (stereo not drawn) [I-163] | 0.223
O=C(O)CNc1ccc2c(c1)CN(C(=O)CNC(=O)/C=C/c1ccc(C(F)(F)F)cc1)CC2 [I-217] | 0.202
O=C(/C=C/c1ccc(C(F)(F)F)cc1F)NCC(=O)N1CCN(Cc2ccc(C(=O)O)cc2)CC1c1ccc(Cl)cc1 (stereo not drawn) [I-251] | 0.366
O=C(O)CCc1ncc2c(n1)CCN(C(=O)CNC(=O)/C=C/c1ccc(C(F)(F)F)cc1)C2 [I-156] | 0.251
O=C(O)Cc1ncc2c(n1)CCN(C(=O)CNC(=O)/C=C/c1ccc(C(F)(F)F)cc1)C2 [I-208] | 0.224
O=C(O)COc1cc(Br)c2c(c1)CCN(C(=O)CNC(=O)/C=C/c1ccc(C(F)(F)F)cc1)C2 [I-181] | 0.138
CC(C)(C)OC(=O)CCc1ccc2c(c1)CCN(C(=O)CNC(=O)/C=C/c1ccc(C(F)(F)F)cc1)C2 [I-40] | 0.996
O=C(O)Cc1cc(Cl)c2c(c1)CCN(C(=O)CNC(=O)/C=C/c1ccc(I)cc1)C2 [I-155] | 0.084
O=C(O)CCc1cccc2c1CCN2C(=O)CNC(=O)/C=C/c1ccc(C(F)(F)F)cc1F [I-245] | 0.045
O=C(O)CCc1cc2c(s1)CN(C(=O)CNC(=O)/C=C/c1ccc(C(F)(F)F)cc1)CC2 [I-220] | 0.1
COC(=O)c1cccc(C2CN(C(=O)CNC(=O)/C=C/c3ccc(C(F)(F)F)cc3F)CCN2C)c1 (stereo not drawn) [I-62] | 0.463
O=C(O)Cc1cc2c(cc1Cl)CN(C(=O)CNC(=O)/C=C/c1ccc(C(F)(F)F)cc1F)CC2 [I-221] | 0.071
COC(=O)c1cccc(C2CCCN(C(=O)CNC(=O)/C=C/c3ccc(C(F)(F)F)cc3F)C2)c1 (stereo not drawn) [I-61] | 1.67
O=C(O)Cc1cccc2c1CCN(C(=O)CNC(=O)/C=C/c1ccc(C(F)(F)F)cc1)C2 [I-192] | 0.397
O=C(O)Cc1ccc2c(c1)CCN(C(=O)CNC(=O)/C=C/c1ccc(C(F)(F)F)cc1Cl)C2 [I-188] | 0.115
O=C(O)Cc1ccc2c(c1)C(O)CN(C(=O)CNC(=O)/C=C/c1ccc(C(F)(F)F)cc1)C2 (stereo not drawn) [I-213] | 0.156
CC(F)(F)c1ccc(/C=C/C(=O)NCC(=O)N2CCc3cc(CC(=O)O)ccc3C2)cc1 [I-211] | 0.263
N#Cc1c(CC(=O)O)ccc2c1CCN(C(=O)CNC(=O)/C=C/c1ccc(I)cc1F)C2 [I-203] | 0.056
O=C(O)CCc1cccc2c1CCN2C(=O)CNC(=O)/C=C/c1ccc(C(F)(F)F)cc1 [I-246] | 0.044
Cc1cc2c(cc1CC(=O)O)CCN(C(=O)CNC(=O)/C=C/c1ccc(C(F)(F)F)cc1)C2 [I-230] | 0.124
O=C(/C=C/c1ccc(C(F)(F)F)cc1)NCC(=O)N1CCc2cc(N3CCC(C(=O)O)CC3)ccc2C1 [I-161] | 0.259
O=C(O)Cc1ccc2c(c1)CCN(C(=O)CNC(=O)/C=C/c1ccc(C(F)(F)F)c(F)c1)C2 [I-189] | 0.424
CC(CC(=O)O)c1ccc2c(c1)CCN(C(=O)CNC(=O)/C=C/c1ccc(C(F)(F)F)cc1)C2 (stereo not drawn) [I-164] | 0.386
COC(=O)CNc1ccc2c(c1)CCN(C(=O)CNC(=O)/C=C/c1ccc(C(F)(F)F)cc1)C2 [I-11] | 0.081
O=C(O)CCCc1ccc2c(c1)CCN(C(=O)CNC(=O)/C=C/c1ccc(C(F)(F)F)cc1)C2 [I-170] | 0.24
O=C(O)Cc1ccc2c(c1)CN(C(=O)CNC(=O)/C=C/c1ccc(C(F)(F)F)cc1)C2 [I-142] | 0.241
COc1cc(CC(=O)OC(C)(C)C)cc2c1CN(C(=O)CNC(=O)/C=C/c1ccc(C(F)(F)F)cc1)CC2 [I-43] | 0.709
O=C(O)Cc1ccc2n(c1=O)CCN(C(=O)CNC(=O)/C=C/c1ccc(C(F)(F)F)cc1F)C2 [I-207] | 0.579
CCC1c2ccc(CC(=O)O)cc2CCN1C(=O)CNC(=O)/C=C/c1ccc(C(F)(F)F)cc1 (stereo not drawn) [I-216] | 0.358

same assay, conditions: Human BOAT1 stable expression CHO cells; phenylalanine uptake, phenylalanine 0.25 mM; read-out: hB0AT1 IC50

IC50 [µM] | Structure (SMILES)
0.107 | C[C@@H]1CN(C(=O)CNC(=O)/C=C/c2ccc(C(F)(F)F)cc2F)[C@@H](c2cccs2)CN1CCCC(=O)O [I-357]
0.661 | CNC(=O)Cc1cc(CC(=O)O)cc2c1CN(C(=O)CNC(=O)/C=C/c1ccc(C(F)(F)F)cc1F)CC2 [I-336]
0.04 | NC(=O)Cc1ccc2c(c1)CN(C(=O)CNC(=O)/C=C/c1ccc(C(F)(F)F)cc1)CC2 [I-278]
0.7 | CNC(=O)Cn1cc2c(n1)CN(C(=O)CNC(=O)/C=C/c1ccc(C(F)(F)F)cc1)CC2 [I-282]
0.14 | CC1(C)CN(C(=O)CNC(=O)/C=C/c2ccc(C(F)(F)F)cc2F)[C@@H](c2ccccc2)CN1CCCC(=O)O [I-259]
0.069 | O=C(O)CCCN1CCN(C(=O)CNC(=O)/C=C/c2ccc(C(F)(F)F)cc2F)C(C2CCCCC2)C1 (stereo not drawn) [I-365]
1.11 | O=C(/C=C/c1ccc(C(F)(F)F)cc1F)NCC(=O)N1CCCC(N2CC[C@@H](C(=O)O)C2)C1 (stereo partly drawn) [I-359]
2.89 | O=C(O)CCCN1C[C@H](c2ccccc2)N(C(=O)CNC(=O)/C=C/c2ccc(C(F)(F)F)cc2F)C[C@H]1C(F)(F)F [I-399]
0.018 | O=C(O)CCCN1CCN(C(=O)CNC(=O)/C=C/c2ccc(C(F)(F)F)cc2F)[C@@H](c2ccc(C3CC3)cc2)C1 [I-263]
0.235 | O=C(O)CCCN1CCN(C(=O)CNC(=O)C=Cc2ccc(C(F)(F)F)cc2F)C(c2nc(-c3ccccc3)no2)C1 (stereo not drawn) [I-402]
2.69 | CC(CN1C[C@H](c2ccccc2)N(C(=O)CNC(=O)/C=C/c2ccc(C(F)(F)F)cc2F)C[C@H]1C)C(=O)O (stereo partly drawn) [I-347]
0.292 | O=C(O)CCCN1CCN(C(=O)CNC(=O)/C=C/c2ccc(C(F)(F)F)cc2F)C(c2noc3ccccc23)C1 (stereo not drawn) [I-400]
0.019 | O=C(/C=C/c1ccc(C(F)(F)F)cc1F)NCC(=O)N1CCc2cc(CC(=O)NCCO)cc(Cl)c2C1 [I-280]
0.03 | CNC(=O)Cc1ccc2c(c1)CCN(C(=O)CNC(=O)/C=C/c1ccc(C(F)(F)F)cc1)C2 [I-277]
0.007 | CONC(=O)Cc1cc(Cl)c2c(c1)CCN(C(=O)CNC(=O)/C=C/c1ccc(C(F)(F)F)cc1F)C2 [I-281]
0.352 | C[C@@H]1CN(C(=O)CNC(=O)/C=C/c2ccc(C(F)(F)F)cc2F)[C@@H](c2ccccc2)CN1CC#CC(=O)O [I-320]
1.78 | CC(CCN1C[C@H](c2ccccc2)N(C(=O)CNC(=O)/C=C/c2ccc(C(F)(F)F)cc2F)C[C@H]1C)C(=O)O (stereo partly drawn) [I-345]
0.638 | O=C(O)Cc1ccccc1C1=CCCN(C(=O)CNC(=O)/C=C/c2ccc(C(F)(F)F)cc2F)C1 [I-260]
0.223 | CN1CCN(C(=O)CNC(=O)/C=C/c2ccc(C(F)(F)F)cc2F)CC1c1cccc(CC(=O)O)c1 (stereo not drawn) [I-358]
0.022 | NC(=O)Cc1ccc2c(c1)CCN(C(=O)CNC(=O)/C=C/c1ccc(C(F)(F)F)cc1)C2 [I-273, (E)-N-[2-[6-(2-amino-2-oxoethyl)-3,4-dihydro-1H-isoquinolin-2-yl]-2-oxoethyl]-3-[4-(trifluoromethyl)phenyl]prop-2-enamide]
1.33 | CN1CCN(C(=O)CNC(=O)/C=C/c2ccc(C(F)(F)F)cc2F)CC1c1cccc(C(=O)O)c1 (stereo not drawn) [I-258]
0.037 | O=C(/C=C/c1ccc(C(F)(F)F)cc1F)NCC(=O)N1CCN(CC2CC(C(=O)O)C2)CC1c1ccc(Cl)cc1 (single isomer, unassigned) [I-297, 3-[[3-(4-chlorophenyl)-4-[2-[[(E)-3-[2-fluoro-4-(trifluoromethyl)phenyl]prop-2-enoyl]amino]acetyl]piperazin-1-yl]methyl]cyclobutane-1-carboxylic acid]

Source: patent US20260001849A1, “NOVEL B0AT1 INHIBITOR” (MITSUBISHI TANABE PHARMA CORPORATION, priority 2023, published 2026)
